Measurements reported in US10149838B2, “Small molecule securinine and norsecurinine analogs and their use in inhibiting myeloperoxidase” (MiRx Pharmaceuticals, LLC, priority 2013, dated 2018).

Assays:
MPO [1] = target: T1, MPO (Homo sapiens, UniProt P05164); test: Myeloperoxidase Inhibitor Screening Assay Kit (Cayman Chemical), chlorination activity; assay type: biochemical; parameters: purchased Cayman Chemical 700170; concentration or dose not given beside the values; conditions: Table 1; MPO inhibitory activity
T1 sequence (P05164 49-745): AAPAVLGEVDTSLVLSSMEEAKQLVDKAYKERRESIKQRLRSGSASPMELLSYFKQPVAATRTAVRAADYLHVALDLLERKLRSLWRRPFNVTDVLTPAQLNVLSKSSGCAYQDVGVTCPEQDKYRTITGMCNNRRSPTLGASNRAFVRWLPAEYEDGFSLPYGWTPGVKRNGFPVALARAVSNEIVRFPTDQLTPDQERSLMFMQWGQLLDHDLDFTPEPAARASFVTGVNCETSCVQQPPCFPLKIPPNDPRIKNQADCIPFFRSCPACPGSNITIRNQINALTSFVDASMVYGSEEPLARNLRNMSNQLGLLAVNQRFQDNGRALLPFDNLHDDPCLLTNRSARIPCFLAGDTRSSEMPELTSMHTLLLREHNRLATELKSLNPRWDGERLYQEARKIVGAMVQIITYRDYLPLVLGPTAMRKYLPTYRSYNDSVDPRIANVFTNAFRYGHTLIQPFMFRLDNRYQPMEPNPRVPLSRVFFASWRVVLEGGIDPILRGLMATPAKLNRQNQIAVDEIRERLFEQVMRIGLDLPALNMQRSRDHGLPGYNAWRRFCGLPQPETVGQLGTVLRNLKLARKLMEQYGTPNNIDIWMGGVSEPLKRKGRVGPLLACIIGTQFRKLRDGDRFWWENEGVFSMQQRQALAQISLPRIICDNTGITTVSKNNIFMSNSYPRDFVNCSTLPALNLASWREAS
Method: The columns are represented as follows: A: Blank; B: Commercial inhibitor; C; Another commercial inhibitor (sc-204107); D: Securinine; E: INVS-MG-98B, F: 14-Iodosecurinine; G; INVS-MG-106B.
The analogs described herein were contacted against MPO and the biological activity was assessed. Tables 1 and 2 show representative biological activity examples and that the listed compounds are potent inhibitors of MPO, specifically that the analogs inhibit chlorination activity. The compounds were tested for MPO inhibitory activity using the Myeloperoxidase Inhibitor Screening Assay Kit (Cayman Chemical Cat #700170) as described in the manufacturers manual
Studies were then aimed at establishing dose dependent relative chlorination activity results of securinine and norsecurinine analogs. As depicted in FIG. 4, the analogs of the present invention were extremely potent in inhibiting chlorination.

some cell lines = test: MTT cell survival assay (Roche), cell lines not specified; assay type: cell-based; conditions: cell culture conditions
Text: The securinine analog MPO inhibitors have favorable in vitro and in vivo toxicity profiles.

MPO [2] = target: T1, MPO; test: Biotin pull-down with streptavidin magnetic beads from HL60 cells, SDS-PAGE, MS and western blot; assay type: binding; parameters: endogenous in cells; host or cells: HL60; conditions: 10 μM, 2 hr, biotin-conjugated
Method: Only MPO (red) and H2O2 promoted a shift in the Soret peak, formation of a new band at 630 nm (blue).
It was next set about to investigate the molecular target of the analogs (FIG. 6A). Cultured HL60 cells were treated with either Biotin/Biotin-INVMG1 (securinine) (10 μM) for 2 hr and pull-down experiments using streptavidin magnetic beads were used to pulldown bound molecules, followed by SDS-PAGE analysis (FIG. 6B). […] This 80 kDa protein band was excised, digested with trypsin, and the tryptic digests then analyzed using Mass Spectroscopy. […] The proteins bound to streptavidin beads were next separated using SDS-PAGE and incubated then with anti-human MPO antibody. […] To further confirm the binding of INVMG1 to MPO, the MPO enzyme was incubated with and without INVMG184B/H2O2, and analyzed absorption maxima using UV/visible.

| Compound | % Activity (MPO [1]) [%] | also measured |
| --- | --- | --- |
| O=C1C=C2C[C@H](SCC(F)(F)F)[C@@H]3C[C@@]2(O1)[C@H]1CCCCN31 (stereo in doubt) [5B] | 83 | – |
| CC(C)CSC1CC2=CC(=O)O[C@@]23C[C@@H]1N1CCCC[C@@H]13 (stereo in doubt) [57A] | 86 | – |
| CC(C)CS[C@H]1CC2=CC(=O)O[C@@]23C[C@@H]1N1CCCC[C@@H]13 (stereo in doubt) [57B] | 2 | – |
| O=C1C=C2CC(SC34CC5CC(CC(C5)C3)C4)[C@@H]3C[C@@]2(O1)[C@H]1CCCCN31 (stereo partly drawn) [4A] | 1 | – |
| O=C1CC2(SCC(F)(F)F)CC(SCC(F)(F)F)[C@@H]3C[C@@]2(O1)[C@H]1CCCCN31 (stereo partly drawn) [5A] | 78 | – |
| O=C1C=C2CC(N3CCC(F)(F)C3)[C@@H]3C[C@@]2(O1)[C@H]1CCCCN31 (stereo partly drawn) [9A] | 46 | – |
| O=C1C=C2CC(SCC3CCCCCC3)[C@@H]3C[C@@]2(O1)[C@H]1CCCCN31 (stereo partly drawn) [16A] | 91 | – |
| CCCCCCCSC1CC2=CC(=O)O[C@@]23C[C@@H]1N1CCCC[C@@H]13 (stereo partly drawn) [19A] | 38 | – |
| CCN(CC)CCSC1CC2=CC(=O)O[C@@]23C[C@@H]1N1CCCC[C@@H]13 (stereo partly drawn) [21B] | 30 | – |
| O=C1C=C2CC(NCC3CC3)[C@@H]3C[C@@]2(O1)[C@H]1CCCCN31 (stereo partly drawn) [25B] | 99 | – |
| O=C1C=C2CC(NC3CC3)[C@@H]3C[C@@]2(O1)[C@H]1CCCCN31 (stereo partly drawn) [26A] | 83 | – |
| O=C1C=C2CC(NC3CCCC3)[C@@H]3C[C@@]2(O1)[C@H]1CCCCN31 (stereo partly drawn) [27B] | 46 | – |
| O=C1C=C2CC(NC3CCCCC3)[C@@H]3C[C@@]2(O1)[C@H]1CCCCN31 (stereo partly drawn) [28B] | 86 | – |
| O=C1C=C2CC(NC3CCCCCC3)[C@@H]3C[C@@]2(O1)[C@H]1CCCCN31 (stereo partly drawn) [29A] | 1 | – |
| O=C1C=C2CC(NC3CCCCCCC3)[C@@H]3C[C@@]2(O1)[C@H]1CCCCN31 (stereo partly drawn) [30A] | 78 | – |
| CC(C)SC1CC2=CC(=O)O[C@@]23C[C@@H]1N1CCCC[C@@H]13 (stereo partly drawn) [37B] | 97 | – |
| O=C1C=C2CC(NC3CC(O)C3)[C@@H]3C[C@@]2(O1)[C@H]1CCCCN31 (stereo partly drawn) [46B] | 99 | – |
| CCCSC1CC2=CC(=O)O[C@@]23C[C@@H]1N1CCCC[C@@H]13 (stereo partly drawn) [58C] | 30 | – |
| CO[C@H]1CC2=CC(=O)O[C@@]23C[C@@H]1N1CCCC[C@@H]13 [97-IIB] | 97 | – |
| CCCN(CC#CC1=C[C@@H]2C[C@@]3(OC(=O)C=C13)[C@H]1CCCCN21)CCC [152A] | 18 | – |
| COc1ccc2cc(C#CC3=C[C@@H]4C[C@@]5(OC(=O)C=C35)[C@H]3CCCCN43)ccc2c1 [157B] | 80 | – |
| O=C1C=C2C(C#Cc3cccs3)=C[C@@H]3C[C@@]2(O1)[C@H]1CCCCN31 [170B] | 64 | – |
| C#CC1=C[C@@H]2C[C@@]3(OC(=O)C=C13)[C@H]1CCCCN21 [207A] | 99 | – |
| COc1cc(C#CC2=C[C@@H]3C[C@@]4(OC(=O)C=C24)[C@H]2CC[C@H](C(OC)OC)N32)cc(OC)c1 [222B] | 70 | – |
| O=C1C=C2CC(SCc3cccs3)[C@@H]3C[C@@]2(O1)[C@H]1CCCCN31 (stereo partly drawn) [INVS-MG-14B] | 83 | – |
| O=C1C=C2C=C[C@@H]3C[C@@]2(O1)[C@H]1CCCCN31 [MA1] | – | in vitro toxicity (cell survival) (some cell lines): higher toxicity effect on some cell lines |
| O=C(CCCC[C@@H]1SC[C@@H]2NC(=O)N[C@@H]21)NCCS[C@H]1CC2=CC(=O)O[C@@]23C[C@@H]1N1CCCC[C@@H]13 [SEC- BIO] | 32 | – |
| NCCSC1CC2=CC(=O)O[C@@]23C[C@@H]1N1CCCC[C@@H]13 (stereo partly drawn) [compound 105] | 99 | – |
| O=C1C=C2C=C[C@@H]3C[C@@]2(O1)[C@H]1CCCCN31 [securinine, Securinine] | 32 | binding to MPO in pull-down (MPO [2]): revealed the binding of MPO |
